Results reported in ChEMBL document CHEMBL6083273, “Targeting Periplakin of Novel Benzenesulfonamides as Highly Selective Agonists for the Treatment of Vitiligo” (2024).
Each block holds one compound with its values, some of them ahead of it. Calls of active or inactive are those of the source. No cut-off for these calls is given here.

Columns and labels:
Danio rerio [1] = species: Danio rerio; experiment: Effect on tryptophan metabolism in zebrafish embryo assessed as IAA metabolite level at 10 uM by LC/MS analysis; assay type: functional
Danio rerio [2] = species: Danio rerio; experiment: Induction of melanogenesis in zebrafish treated for 24 hrs by absorbance based assay; assay type: functional, organism-based
Danio rerio [3] = experiment: In vivo agonist activity at PPL in zebrafish assessed as increase in cAMP content at 10 uM by ELISA; assay type: functional, organism-based
Danio rerio [4] = species: Danio rerio; experiment: Effect on tryptophan metabolism in zebrafish embryo assessed as 5-HIAA metabolite level at 10 uM by LC/MS analysis; assay type: functional
Danio rerio [5] = species: Danio rerio; experiment: Effect on tryptophan metabolism in zebrafish embryo assessed as AA metabolite level at 10 uM by LC/MS analysis; assay type: functional
Danio rerio [6] = species: Danio rerio; experiment: Effect on tryptophan metabolism in zebrafish embryo assessed as 5-HTOL metabolite level at 10 uM by LC/MS analysis; assay type: functional
Danio rerio [7] = experiment: In vivo agonist activity at PPL in zebrafish assessed as increase in Dct mRNA level at 10 uM by ISH analysis; assay type: functional, organism-based
Danio rerio [8] = species: Danio rerio; experiment: Effect on tryptophan metabolism in zebrafish embryo assessed as IGA metabolite level at 10 uM by LC/MS analysis; assay type: functional
Danio rerio [9] = species: Danio rerio; experiment: Effect on pyrimidine metabolism in zebrafish embryo at 10 uM by KEGG pathway-enrichment analysis; assay type: functional, organism-based
Danio rerio [10] = species: Danio rerio; experiment: Effect on tryptophan metabolism in zebrafish embryo assessed as IPA metabolite level at 10 uM by LC/MS analysis; assay type: functional
Danio rerio [11] = species: Danio rerio; experiment: Effect on tryptophan metabolism in zebrafish embryo assessed as IAN metabolite level at 10 uM by LC/MS analysis; assay type: functional
Danio rerio [12] = experiment: In vivo agonist activity at PPL in zebrafish assessed as increase in mitfa mRNA level at 10 uM by ISH analysis; assay type: functional, organism-based
Danio rerio [13] = species: Danio rerio; experiment: Effect on purine metabolism in zebrafish embryo at 10 uM by KEGG pathway-enrichment analysis; assay type: functional, organism-based
Mus musculus [14] = experiment: Induction of melanogenesis in hydroquinone-induced vitiligo C57BL/6J mouse assessed as darker hair color administered topically for 20 days; assay type: functional, organism-based; settings: route top, time 20.0 day
Danio rerio [15] = species: Danio rerio; experiment: Effect on tryptophan metabolism in zebrafish embryo assessed as NAS metabolite level at 10 uM by LC/MS analysis; assay type: functional
Danio rerio [16] = species: Danio rerio; experiment: Effect on tryptophan metabolism in zebrafish embryo assessed as LE metabolite level at 10 uM by LC/MS analysis; assay type: functional
[17] = Induction of melanogenesis in co-culture of HEK293 cells transfected with PPL (unknown origin) and mouse B16-F10 cells at 10 uM incubated for 48 hrs by Masson-Fontana staining based analysis relative to control; assay type: functional
Danio rerio [18] = species: Danio rerio; experiment: Induction of melanogenesis in zebrafish at 40 uM treated for 24 hrs by absorbance based assay relative to control; assay type: functional
Danio rerio [19] = species: Danio rerio; experiment: Binding affinity to PPL in zebrafish at 10 uM by pull down assay; settings: filed as agonist
Danio rerio [20] = species: Danio rerio; experiment: Effect on tryptophan metabolism in zebrafish embryo assessed as ICA metabolite level at 10 uM by LC/MS analysis; assay type: functional
Danio rerio [21] = species: Danio rerio; experiment: Effect on tryptophan metabolism in zebrafish embryo assessed as 3-HK metabolite level at 10 uM by LC/MS analysis; assay type: functional
Danio rerio [22] = species: Danio rerio; experiment: Effect on tryptophan metabolism in zebrafish embryo assessed as IA metabolite level at 10 uM by LC/MS analysis; assay type: functional
Mus musculus [23] = experiment: Induction of melanogenesis in hydroquinone-induced vitiligo C57BL/6J mouse at 1.5 % administered topically for 20 days by Masson-Fontana staining based analysis; assay type: functional, organism-based; settings: route top, time 20.0 day
Danio rerio [24] = species: Danio rerio; experiment: Induction of melanogenesis in wild-type zebrafish at 10 uM treated for 24 hrs by absorbance based assay; assay type: functional, organism-based
Danio rerio [25] = species: Danio rerio; experiment: Effect on tryptophan metabolism in zebrafish embryo assessed as KYNA metabolite level at 10 uM by LC/MS analysis; assay type: functional
Danio rerio [26] = species: Danio rerio; experiment: Effect on tryptophan metabolism in zebrafish embryo assessed as 3-HAA metabolite level at 10 uM by LC/MS analysis; assay type: functional
Danio rerio [27] = species: Danio rerio; experiment: Induction of melanogenesis in zebrafish treated for 24 hrs by absorbance based assay (reference value: 98.2 to 100.3 %); assay type: functional
Mus musculus [28] = experiment: In vivo agonist activity at PPL in skin of hydroquinone-induced vitiligo C57BL/6J mouse at 1.5 % administered topically for 20 days by immunofluorescence analysis; assay type: functional, organism-based; settings: time 20.0 day
Danio rerio [29] = species: Danio rerio; experiment: Effect on tryptophan metabolism in zebrafish embryo assessed as Xa metabolite level at 10 uM by LC/MS analysis; assay type: functional
Danio rerio [30] = species: Danio rerio; experiment: Effect on histidine metabolism in zebrafish embryo at 10 uM by KEGG pathway-enrichment analysis; assay type: functional, organism-based
Danio rerio [31] = species: Danio rerio; experiment: Induction of melanogenesis in zebrafish at 10 uM treated for 24 hrs by absorbance based assay; assay type: functional, organism-based
Danio rerio [32] = species: Danio rerio; experiment: Effect on tryptophan metabolism in zebrafish embryo assessed as Trp metabolite level at 10 uM by LC/MS analysis; assay type: functional
Danio rerio [33] = species: Danio rerio; experiment: Induction of melanogenesis in zebrafish harboring PPL-/- at 10 uM treated for 24 hrs by absorbance based assay; assay type: functional, organism-based
Danio rerio [34] = experiment: In vivo agonist activity at PPL in zebrafish assessed as increase in mitfa mRNA level at 10 uM by qRT-PCR analysis; assay type: functional, organism-based
Danio rerio [35] = species: Danio rerio; experiment: Effect on tryptophan metabolism in zebrafish embryo assessed as ILA metabolite level at 10 uM by LC/MS analysis; assay type: functional
Danio rerio [36] = experiment: In vivo agonist activity at PPL in zebrafish assessed as increase in Tyr mRNA level at 10 uM by ISH analysis; assay type: functional, organism-based
Danio rerio [37] = species: Danio rerio; experiment: Effect on tryptophan metabolism in zebrafish embryo assessed as 5-HTP metabolite level at 10 uM by LC/MS analysis; assay type: functional
Danio rerio [38] = species: Danio rerio; experiment: Effect on cAMP content in zebrafish harboring PPL-/- at 10 uM by ELISA; assay type: functional, organism-based
Danio rerio [39] = species: Danio rerio; experiment: Effect on mitfa mRMA level in zebrafish harboring PPL-/- at 10 uM by qRT-PCR analysis; assay type: functional
Danio rerio [40] = species: Danio rerio; experiment: Effect on tryptophan metabolism in zebrafish embryo assessed as NA metabolite level at 10 uM by LC/MS analysis; assay type: functional
[41] = Induction of melanogenesis in co-culture of HEK293 cells and mouse B16-F10 cells at 10 uM incubated for 48 hrs by Masson-Fontana staining based analysis relative to control; assay type: functional
Danio rerio [42] = species: Danio rerio; experiment: Binding affinity to PPL in zebrafish incubated for 10 mins by LiP-SMap analysis; settings: filed as agonist
Danio rerio [43] = species: Danio rerio; experiment: Effect on tryptophan metabolism in zebrafish embryo assessed as skatole metabolite level at 10 uM by LC/MS analysis; assay type: functional
Danio rerio [44] = species: Danio rerio; experiment: Effect on tryptophan metabolism in zebrafish embryo assessed as indole metabolite level at 10 uM by LC/MS analysis; assay type: functional
Danio rerio [45] = species: Danio rerio; experiment: Effect on tryptophan metabolism in zebrafish embryo assessed as indican metabolite level at 10 uM by LC/MS analysis; assay type: functional

Activity (Danio rerio [19]): Active
Activity (Danio rerio [42]): Active
SMILES: Cc1cc(-c2ccc([C@H](C)Nc3nccc(NS(=O)(=O)c4cccc([N+](=O)[O-])c4)n3)cc2)ccc1F
Activity (Danio rerio [1]): 4.89 nmol/kg
Activity (Danio rerio [2]): Dose-dependent-effect
Activity (Danio rerio [3]): Active
Activity (Danio rerio [4]): 76.93 nmol/kg
Activity (Danio rerio [5]): 15.09 nmol/kg
Activity (Danio rerio [6]): 0.03 nmol/kg
Activity (Danio rerio [7]): Active
Activity (Danio rerio [8]): 1.2 nmol/kg
Activity (Danio rerio [9]): Active
Activity (Danio rerio [10]): 20.08 nmol/kg
Activity (Danio rerio [11]): 16.28 nmol/kg
Activity (Danio rerio [12]): Active
Activity (Danio rerio [13]): Active
Activity (Mus musculus [14]): Dose-dependent-effect
Activity (Danio rerio [15]): 0.07 nmol/kg
Activity (Danio rerio [16]): 41.42 nmol/kg
Activity [17]: 137.24%
Emax at 40 µM (Danio rerio [18]): 197%
Activity (Danio rerio [20]): 24.76 nmol/kg
Activity (Danio rerio [21]): 81.53 nmol/kg
Activity (Danio rerio [22]): 21.8 nmol/kg
Activity (Mus musculus [23]): Active; Calcipotriene And Ruxolitinib Was Considerably Less Than The Compound At Concentration Of 1.5%
Activity (Danio rerio [24]): Active
Activity (Danio rerio [25]): 8.23 nmol/kg
Activity (Danio rerio [26]): 3.14 nmol/kg
Activity (Danio rerio [27]): 171.43%
Activity (Mus musculus [28]): Active
Activity (Danio rerio [29]): 399.41 nmol/kg
Activity (Danio rerio [30]): Active
Activity (Danio rerio [31]): Active
Activity (Danio rerio [32]): 203749.8 nmol/kg
Activity (Danio rerio [33]): inactive
Activity (Danio rerio [34]): Active
Activity (Danio rerio [35]): 109.9 nmol/kg
Activity (Danio rerio [36]): Active
Activity (Danio rerio [37]): 41.08 nmol/kg
Activity (Danio rerio [38]): No effect
Activity (Danio rerio [39]): No effect
Activity (Danio rerio [40]): 2295.89 nmol/kg
Activity [41]: 107.32%
Activity (Danio rerio [43]): 527.99 nmol/kg
Activity (Danio rerio [44]): 635.89 nmol/kg

SMILES: Cc1cc(-c2ccc([C@H](C)Nc3nccc(NS(=O)(=O)c4ccc([N+](=O)[O-])cc4)n3)cc2)ccc1F
Activity (Danio rerio [1]): 3.45 nmol/kg
Activity (Danio rerio [4]): 55.63 nmol/kg
Activity (Danio rerio [5]): 14.25 nmol/kg
Activity (Danio rerio [6]): 0.03 nmol/kg
Activity (Danio rerio [8]): 2.84 nmol/kg
Activity (Danio rerio [10]): 19.38 nmol/kg
Activity (Danio rerio [11]): 17.69 nmol/kg
Activity (Danio rerio [15]): 0.06 nmol/kg
Activity (Danio rerio [16]): 32.11 nmol/kg
Activity (Danio rerio [20]): 38.27 nmol/kg
Activity (Danio rerio [21]): 93.63 nmol/kg
Activity (Danio rerio [22]): 22 nmol/kg
Activity (Danio rerio [45]): 0.95 nmol/kg
Activity (Danio rerio [26]): 3.54 nmol/kg
Activity (Danio rerio [27]): 108.21%
Activity (Danio rerio [29]): 430.99 nmol/kg
Activity (Danio rerio [32]): 206300.5 nmol/kg
Activity (Danio rerio [35]): 105.98 nmol/kg
Activity (Danio rerio [37]): 54.62 nmol/kg
Activity (Danio rerio [40]): 2107.11 nmol/kg
Activity (Danio rerio [43]): 582.83 nmol/kg
Activity (Danio rerio [44]): 788.07 nmol/kg
